Experimental data from US11339419B2, “Scavenger protein(s) for improved preservation of analyte detection sensor(s) and method(s) of use thereof” (Siemens Healthcare Diagnostics Inc., priority 2017, dated 2022).
Several values for one entry are separate records, joined by “and”; a condition that tells them apart may be missing. Identical values can stand only once.

Legend:
[1] = system: sarcosine oxidase (BBI Solutions); assay: BBI Solutions Sarcosine Oxidase Enzyme Absorbance with BSA and MIT; format: biochemical; settings: for Sarcosine Oxidase Enzyme Absorbance, solutions 1-5 / Sarcosine Oxidase Enzyme Absorbance, MEAN of 7-11 / Sarcosine Oxidase Enzyme Absorbance, MEAN of 1-5: 37° C.
Description: Tables 1-4 depict aqueous solutions comprising varying concentrations of BSA (at concentrations of 0 mg/mL, 5 mg/mL, 25 mg/mL, and 50 mg/mL), varying concentrations of MIT (at concentrations of 50 parts per million and 100 parts per million) or Proclin™ 300 (at concentrations of 0.7% and 1.4%) biocides over a particular time period (measurements were taken at days 0, 4, and 14 after exposure of the enzyme(s) to the aqueous solutions) and the associated enzyme absorbance measurements for sarcosine oxidase (commercially offered for sale by BBI Solutions and Toyobo). Absorbance measurements of the sarcosine oxidase enzyme(s) were taken via spectrophotometer for each aqueous solution (represented as columns 1-5 in Tables 1-4—column 6 is a blank), the absorbance being directly proportional to the enzyme activity being measured-which for Tables 1-4 is sarcosine oxidase enzyme activity. Accordingly, the higher the absorbance measurement, the higher the enzyme activity of sarcosine oxidase. Columns 7-11 represent five replicate readings in which the aqueous solution only contains BSA (i.e., there is no biocide(s) present in the aqueous solution). In addition, the mean values, standard deviations, and coefficients of variation are also presented for the enzyme activity/absorbance of each aqueous solution. All measurements were taken at 37° C.
As depicted below in Table 1, sarcosine oxidase (commercially offered for sale by BBI Solutions) enzyme activity is measured against various concentrations of MIT (biocide) and BSA (scavenger protein) over a period of 14 days (with absorbance measurements taken at 0, 4, and 14 days) for five different aqueous solutions (represented as columns 1-5—column 6 is a blank).

[2] = system: sarcosine oxidase (Toyobo); assay: Toyobo Sarcosine Oxidase Enzyme Absorbance with BSA and Proclin 300; format: biochemical
Text: Absorbance measurements of the sarcosine oxidase enzyme(s) were taken via spectrophotometer for each aqueous solution (represented as columns 1-5 in Tables 1-4—column 6 is a blank), the absorbance being directly proportional to the enzyme activity being measured-which for Tables 1-4 is sarcosine oxidase enzyme activity. Accordingly, the higher the absorbance measurement, the higher the enzyme activity of sarcosine oxidase. […] In addition, the mean values, standard deviations, and coefficients of variation are also presented for the enzyme activity/absorbance of each aqueous solution. All measurements were taken at 37° C.

[3] = Day 14, 50 ppm MIT, 5 mg/mL BSA
[4] = Day 14, 50 ppm MIT, 25 mg/mL BSA
[5] = Day 14, 50 ppm MIT, 50 mg/mL BSA
[6] = Day 14, 100 ppm MIT, 5 mg/mL BSA
[7] = Day 14, 100 ppm MIT, 25 mg/mL BSA
[8] = Day 14, 100 ppm MIT, 50 mg/mL BSA
[9] = Day 0, BSA 5 mg/mL only, no Proclin 300, line of 0.7% Proclin 300
[10] = Day 0, BSA 5 mg/mL only, no Proclin 300, line of 1.4% Proclin 300
[11] = Day 0, BSA 25 mg/mL only, no Proclin 300, line of 0.7% Proclin 300
[12] = Day 0, BSA 25 mg/mL only, no Proclin 300, line of 1.4% Proclin 300
[13] = Day 0, BSA 50 mg/mL only, no Proclin 300, line of 0.7% Proclin 300
[14] = Day 0, BSA 50 mg/mL only, no Proclin 300, line of 1.4% Proclin 300

Sarcosine Oxidase Enzyme Absorbance, MEAN of 7-11 ([1]; Day 14, 5 mg/mL BSA only, no MIT (50 ppm MIT row)): 1.39
Sarcosine Oxidase Enzyme Absorbance, MEAN of 7-11 ([1]; Day 14, 5 mg/mL BSA only, no MIT (100 ppm MIT row)): 1.42
Sarcosine Oxidase Enzyme Absorbance, MEAN of 7-11 ([1]; Day 14, 25 mg/mL BSA only, no MIT (50 ppm MIT row)): 1.38
Sarcosine Oxidase Enzyme Absorbance, MEAN of 7-11 ([1]; Day 14, 25 mg/mL BSA only, no MIT (100 ppm MIT row)): 1.40
Sarcosine Oxidase Enzyme Absorbance, MEAN of 7-11 ([1]; Day 14, 50 mg/mL BSA only, no MIT (50 ppm MIT row)): 1.37
Sarcosine Oxidase Enzyme Absorbance, MEAN of 7-11 ([1]; Day 14, 50 mg/mL BSA only, no MIT (100 ppm MIT row)): 1.44
% Bias ([1]; Day 14, 50 ppm MIT vs no MIT, 5 mg/mL BSA): −1.0%
% Bias ([1]; Day 14, 50 ppm MIT vs no MIT, 25 mg/mL BSA): −0.2%
% Bias ([1]; Day 14, 50 ppm MIT vs no MIT, 50 mg/mL BSA): 1.5%
Sarcosine Oxidase Enzyme Absorbance, MEAN of 1-5 [1, 3]: 1.37
Sarcosine Oxidase Enzyme Absorbance, MEAN of 1-5 [1, 4]: 1.38
Sarcosine Oxidase Enzyme Absorbance, solutions 1-5 [1, 4]: 1.413 and 1.41 and 1.422 and 1.427
Sarcosine Oxidase Enzyme Absorbance, MEAN of 1-5 [1, 5]: 1.39
% Bias ([1]; Day 14, 100 ppm MIT vs no MIT, 5 mg/mL BSA): 0.3%
% Bias ([1]; Day 14, 100 ppm MIT vs no MIT, 25 mg/mL BSA): −0.2%
% Bias ([1]; Day 14, 100 ppm MIT vs no MIT, 50 mg/mL BSA): −0.8%
Sarcosine Oxidase Enzyme Absorbance, MEAN of 1-5 [1, 6]: 1.43
Sarcosine Oxidase Enzyme Absorbance, MEAN of 1-5 [1, 7]: 1.40
Sarcosine Oxidase Enzyme Absorbance, MEAN of 1-5 [1, 8]: 1.43
absorbance of the sarcosine oxidase enzyme compared to samples containing 0 mg/mL of BSA ([1]; days 4 and 14, 5, 25 and 50 mg/mL BSA, with MIT): increased absorbance
sarcosine oxidase absorbance, solutions 7-11 ([1]; days 4 and 14, only BSA, no MIT): increased (or at least maintained)
Absorbance, solutions 7-11 [2, 9]: 1.419
MEAN absorbance, solutions 7-11 [2, 9]: 1.39
Absorbance, solutions 7-11 [2, 10]: 1.397 and 1.427 and 1.404
MEAN absorbance, solutions 7-11 [2, 10]: 1.35
Absorbance, solutions 7-11 [2, 11]: 1.443
MEAN absorbance, solutions 7-11 [2, 11]: 1.40
Absorbance, solutions 7-11 [2, 12]: 1.403 and 1.426 and 1.429 and 1.44
MEAN absorbance, solutions 7-11 [2, 12]: 1.37
Absorbance, solutions 7-11 [2, 13]: 1.418
MEAN absorbance, solutions 7-11 [2, 13]: 1.39
Absorbance, solutions 7-11 [2, 14]: 1.409 and 1.41 and 1.444
MEAN absorbance, solutions 7-11 [2, 14]: 1.37
MEAN absorbance, solutions 7-11 ([2]; Day 4, BSA 5 mg/mL only, no Proclin 300, line of 0.7% Proclin 300): 0.81
MEAN absorbance, solutions 7-11 ([2]; Day 4, BSA 5 mg/mL only, no Proclin 300, line of 1.4% Proclin 300): 0.86
MEAN absorbance, solutions 7-11 ([2]; Day 4, BSA 25 mg/mL only, no Proclin 300, line of 0.7% Proclin 300): 1.30
MEAN absorbance, solutions 7-11 ([2]; Day 4, BSA 25 mg/mL only, no Proclin 300, line of 1.4% Proclin 300): 1.32
MEAN absorbance, solutions 7-11 ([2]; Day 4, BSA 50 mg/mL only, no Proclin 300, line of 0.7% Proclin 300): 1.31
MEAN absorbance, solutions 7-11 ([2]; Day 4, BSA 50 mg/mL only, no Proclin 300, line of 1.4% Proclin 300): 1.32
MEAN absorbance, solutions 7-11 ([2]; Day 14, BSA 5 mg/mL only, no Proclin 300, line of 0.7% Proclin 300): 0.25
MEAN absorbance, solutions 7-11 ([2]; Day 14, BSA 5 mg/mL only, no Proclin 300, line of 1.4% Proclin 300): 0.29
MEAN absorbance, solutions 7-11 ([2]; Day 14, BSA 25 mg/mL only, no Proclin 300, line of 0.7% Proclin 300): 1.34
MEAN absorbance, solutions 7-11 ([2]; Day 14, BSA 25 mg/mL only, no Proclin 300, line of 1.4% Proclin 300): 1.34
MEAN absorbance, solutions 7-11 ([2]; Day 14, BSA 50 mg/mL only, no Proclin 300, line of 1.4% Proclin 300): 1.39
absorbance of the sarcosine oxidase enzyme compared to samples containing 0 mg/mL of BSA ([2]; days 4 and 14, 5, 25 and 50 mg/mL BSA, with Proclin 300): increased absorbance
sarcosine oxidase absorbance, solutions 7-11 ([2]; days 4 and 14, only BSA, no Proclin 300): increased (or at least maintained)
Substance: bovine serum albumin [BSA]
Sarcosine Oxidase Enzyme Absorbance, solutions 1-5 ([1]; Day 4, 100 ppm MIT, 50 mg/mL BSA): 1.397 and 1.396 and 1.413 and 1.425 and 1.412
Sarcosine Oxidase Enzyme Absorbance, solutions 1-5 [1, 3]: 1.413 and 1.372 and 1.41 and 1.423 and 1.437
Sarcosine Oxidase Enzyme Absorbance, solutions 1-5 [1, 5]: 1.434 and 1.444 and 1.427 and 1.431 and 1.432
Sarcosine Oxidase Enzyme Absorbance, solutions 1-5 [1, 6]: 1.479 and 1.506 and 1.389 and 1.39 and 1.577
Sarcosine Oxidase Enzyme Absorbance, solutions 1-5 [1, 7]: 1.422 and 1.404 and 1.428 and 1.458 and 1.477
Sarcosine Oxidase Enzyme Absorbance, solutions 1-5 [1, 8]: 1.442 and 1.477 and 1.456 and 1.492 and 1.478
